From patent US11566028B2, “Bicyclic heterocycles as FGFR inhibitors” (Incyte Corporation, priority 2019, dated 2023)
Read-outs that look alike come from different tables or passages of the source.

What was measured:
Format in all cases: biochemical
FGFR2 = FGFR2 (Homo sapiens (Human), UniProt P21802); assay: FGFR Enzymatic Assay (FRET peptide phosphorylation), FGFR2
FGFR1 = FGFR1 (Homo sapiens (Human), UniProt P11362); assay: FGFR Enzymatic Assay (FRET peptide phosphorylation), FGFR1; conditions: pre-incubated for 4 hours
Chain of FGFR1 (P11362 22-822): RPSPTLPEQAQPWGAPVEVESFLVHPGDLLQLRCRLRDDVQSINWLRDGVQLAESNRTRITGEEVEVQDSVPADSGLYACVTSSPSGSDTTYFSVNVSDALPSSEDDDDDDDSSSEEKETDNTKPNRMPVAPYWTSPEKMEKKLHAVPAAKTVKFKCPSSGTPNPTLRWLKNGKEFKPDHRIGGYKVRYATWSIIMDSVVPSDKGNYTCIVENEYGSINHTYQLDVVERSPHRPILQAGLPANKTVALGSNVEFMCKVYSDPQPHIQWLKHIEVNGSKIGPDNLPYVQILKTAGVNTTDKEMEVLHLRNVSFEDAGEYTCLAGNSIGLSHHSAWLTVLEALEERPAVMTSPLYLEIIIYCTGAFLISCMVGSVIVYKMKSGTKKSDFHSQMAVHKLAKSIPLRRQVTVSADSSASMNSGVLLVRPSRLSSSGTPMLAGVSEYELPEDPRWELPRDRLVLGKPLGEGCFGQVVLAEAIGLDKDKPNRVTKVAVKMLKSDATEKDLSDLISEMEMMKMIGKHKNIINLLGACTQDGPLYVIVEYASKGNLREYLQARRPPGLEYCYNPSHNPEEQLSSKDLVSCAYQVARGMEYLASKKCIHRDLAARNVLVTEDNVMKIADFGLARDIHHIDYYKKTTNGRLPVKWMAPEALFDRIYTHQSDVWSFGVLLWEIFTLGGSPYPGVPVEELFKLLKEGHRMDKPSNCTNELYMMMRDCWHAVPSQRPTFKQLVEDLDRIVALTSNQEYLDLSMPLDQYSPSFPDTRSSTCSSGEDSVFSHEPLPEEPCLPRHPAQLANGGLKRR

[1] = target: wild-type un-phosphorylated FGFR3 protein (Homo sapiens (Human), UniProt P22607); assay: FGFR Enzymatic Assay (FRET peptide phosphorylation), FGFR3; conditions: pre-incubated for 4 hours
Chain of wild-type un-phosphorylated FGFR3 protein (P22607 23-806): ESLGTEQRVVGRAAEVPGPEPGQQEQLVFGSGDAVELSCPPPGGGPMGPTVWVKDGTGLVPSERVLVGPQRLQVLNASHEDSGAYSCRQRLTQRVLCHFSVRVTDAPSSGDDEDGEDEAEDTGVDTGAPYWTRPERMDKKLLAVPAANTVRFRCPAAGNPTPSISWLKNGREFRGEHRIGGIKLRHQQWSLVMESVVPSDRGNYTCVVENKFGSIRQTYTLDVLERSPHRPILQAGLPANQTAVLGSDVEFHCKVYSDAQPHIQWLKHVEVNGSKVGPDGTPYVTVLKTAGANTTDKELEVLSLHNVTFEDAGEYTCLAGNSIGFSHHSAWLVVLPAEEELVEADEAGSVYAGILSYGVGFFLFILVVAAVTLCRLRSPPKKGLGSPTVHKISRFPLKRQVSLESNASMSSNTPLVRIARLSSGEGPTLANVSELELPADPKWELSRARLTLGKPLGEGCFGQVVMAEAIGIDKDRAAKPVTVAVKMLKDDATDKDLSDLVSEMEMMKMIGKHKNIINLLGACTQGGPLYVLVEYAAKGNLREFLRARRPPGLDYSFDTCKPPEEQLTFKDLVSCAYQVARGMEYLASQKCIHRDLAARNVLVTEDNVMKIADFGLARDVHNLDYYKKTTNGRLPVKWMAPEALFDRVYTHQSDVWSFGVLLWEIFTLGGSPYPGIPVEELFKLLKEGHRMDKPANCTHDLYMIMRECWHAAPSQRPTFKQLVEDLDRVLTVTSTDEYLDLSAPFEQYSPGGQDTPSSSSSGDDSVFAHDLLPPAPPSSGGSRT

Chain of FGFR2 (P21802 22-821): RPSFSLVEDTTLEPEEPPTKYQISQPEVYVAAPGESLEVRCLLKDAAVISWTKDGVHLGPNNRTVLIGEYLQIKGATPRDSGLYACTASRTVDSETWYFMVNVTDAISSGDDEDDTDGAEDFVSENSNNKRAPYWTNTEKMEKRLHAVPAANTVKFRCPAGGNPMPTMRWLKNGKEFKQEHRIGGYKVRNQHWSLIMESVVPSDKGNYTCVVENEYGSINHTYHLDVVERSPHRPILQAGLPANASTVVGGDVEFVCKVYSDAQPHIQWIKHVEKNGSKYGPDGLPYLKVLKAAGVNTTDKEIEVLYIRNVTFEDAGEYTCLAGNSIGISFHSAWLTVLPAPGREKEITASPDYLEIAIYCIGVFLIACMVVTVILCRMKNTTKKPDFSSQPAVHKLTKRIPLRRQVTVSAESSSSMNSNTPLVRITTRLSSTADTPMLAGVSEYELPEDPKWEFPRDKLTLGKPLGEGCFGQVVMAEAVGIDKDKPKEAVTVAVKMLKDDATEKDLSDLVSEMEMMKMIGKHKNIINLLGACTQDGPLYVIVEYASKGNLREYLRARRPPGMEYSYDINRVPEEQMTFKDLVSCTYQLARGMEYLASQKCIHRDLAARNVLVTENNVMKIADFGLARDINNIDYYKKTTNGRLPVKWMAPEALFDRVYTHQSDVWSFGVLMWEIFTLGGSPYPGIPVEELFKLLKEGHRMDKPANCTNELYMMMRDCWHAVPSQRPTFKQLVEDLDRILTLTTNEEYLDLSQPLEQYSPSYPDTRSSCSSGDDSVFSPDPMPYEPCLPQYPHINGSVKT

| Compound | IC50 (FGFR2; pre-incubated for 4 hours) [nM] | IC50 (FGFR1) [nM] | IC50 [1] [nM] | IC50 (FGFR2) [nM] |
| --- | --- | --- | --- | --- |
| CNC(=O)c1cncc(-c2cnn3cc(-c4ccc(N5CCN(C)CC5)nc4)c(O[C@H]4CCOC4)nc23)c1 [Example 19, (S)-N-Methyl-5-(6-(6-(4-methylpiperazin-1-yl)pyridin-3-yl)-5-((tetrahydrofuran-3-yl)oxy)pyrazolo[1,5-a]pyrimidin-3-yl)nicotinamide] | < 10 | 30 to 200 | < 10 |  |
| CNC(=O)c1cncc(-c2cnn3cc(-c4ccc(N5CCOCC5)nc4)c(O[C@H]4CCOC4)nc23)c1 [Example 20, (S)-N-Methyl-5-(6-(6-morpholinopyridin-3-yl)-5-((tetrahydrofuran-3-yl)oxy)pyrazolo[1,5-a]pyrimidin-3-yl)nicotinamide] | < 10 | 30 to 200 | < 10 |  |
| CNC(=O)c1cncc(-c2cnn3cc(-c4cnn(C5CC5)c4)c(O[C@H]4CCOC4)nc23)c1 [Example 21, (S)-5-(6-(1-Cyclopropyl-1H-pyrazol-4-yl)-5-((tetrahydrofuran-3-yl)oxy)pyrazolo[1,5-a]pyrimidin-3-yl)-N-methylnicotinamide] | < 10 | 30 to 200 | < 10 |  |
| CNC(=O)c1cncc(-c2cnn3cc(-c4cnn(C5CCC5)c4)c(O[C@H]4CCOC4)nc23)c1 [Example 22, (S)-5-(6-(1-Cyclobutyl-1H-pyrazol-4-yl)-5-((tetrahydrofuran-3-yl)oxy)pyrazolo[1,5-a]pyrimidin-3-yl)-N-methylnicotinamide] | < 10 | 10 to 30 | < 10 |  |
| CNC(=O)c1cc(-c2cnn3cc(-c4cccnc4)c(O[C@H]4CCOC4)nc23)c(F)c(C(F)F)c1 [Example 23, (S)-3-(Difluoromethyl)-4-fluoro-N-methyl-5-(6-(pyridin-3-yl)-5-((tetrahydrofuran-3-yl)oxy)pyrazolo[1,5-a]pyrimidin-3-yl)benzamide] | < 10 | 30 to 200 | < 10 |  |
| CNC(=O)c1cc(-c2cnn3cc(-c4ccc(C(C)(C)O)nc4)c(O[C@H]4CCOC4)nc23)c(F)c(C(F)F)c1 [Example 25, (S)-3-(Difluoromethyl)-4-fluoro-5-(6-(6-(2-hydroxypropan-2-yl)pyridin-3-yl)-5-((tetrahydrofuran-3-yl)oxy)pyrazolo[1,5-a]pyrimidin-3-yl)-N-methylbenzamide] | < 10 | 30 to 200 | < 10 |  |
| CNC(=O)c1cc(-c2cnn3cc(-c4cnn(C5CN(C)C5)c4)c(O[C@H]4CCOC4)nc23)c(F)c(C(F)F)c1 [Example 26, (S)-3-(Difluoromethyl)-4-fluoro-N-methyl-5-(6-(1-(1-methylazetidin-3-yl)-1H-pyrazol-4-yl)-5-((tetrahydrofuran-3-yl)oxy)pyrazolo[1,5-a]pyrimidin-3-yl)benzamide] | < 10 | < 10 | < 10 |  |
| CNC(=O)c1cc(C#N)cc(-c2cnn3cc(-c4ccc(C)nc4)c(O[C@H]4CCOC4)nc23)c1 [Example 28, (S)-3-Cyano-N-methyl-5-(6-(6-methylpyridin-3-yl)-5-((tetrahydrofuran-3-yl)oxy)pyrazolo[1,5-a]pyrimidin-3-yl)benzamide] | 10 to 30 | ≥ 200 | < 10 |  |
| CNC(=O)c1cc(C#N)cc(-c2cnn3cc(-c4ccncc4)c(O[C@H]4CCOC4)nc23)c1 [Example 30, (S)-3-Cyano-N-methyl-5-(6-(pyridin-4-yl)-5-((tetrahydrofuran-3-yl)oxy)pyrazolo[1,5-a]pyrimidin-3-yl)benzamide] | 10 to 30 | 30 to 200 | < 10 |  |
| CNC(=O)c1cc(O)c(F)c(-c2cnn3cc(-c4cnn(C)c4)c(O[C@H]4CCOC4)nc23)c1 [Example 31, (S)-4-Fluoro-3-hydroxy-N-methyl-5-(6-(1-methyl-1H-pyrazol-4-yl)-5-((tetrahydrofuran-3-yl)oxy)pyrazolo[1,5-a]pyrimidin-3-yl)benzamide] | < 10 | 10 to 30 | < 10 |  |
| CNC(=O)c1cc(-c2cnn3cc(-c4cnn(C5CCC5)c4)c(O[C@H]4CCOC4)nc23)cc(S(C)(=O)=O)c1 [Example 32, (S)-3-(6-(1-Cyclobutyl-1H-pyrazol-4-yl)-5-((tetrahydrofuran-3-yl)oxy)pyrazolo[1,5-a]pyrimidin-3-yl)-N-methyl-5-(methylsulfonyl)benzamide] | 30 to 200 | ≥ 200 | ≥ 200 |  |
| CNC(=O)c1cc(C)c(F)c(-c2cnn3cc(-c4cnn(CCO)c4)c(N[C@H]4CCOC4)nc23)c1 [Example 36, (S)-4-Fluoro-3-(6-(1-(2-hydroxyethyl)-1H-pyrazol-4-yl)-5-((tetrahydrofuran-3-yl)amino)pyrazolo[1,5-a]pyrimidin-3-yl)-N,5-dimethylbenzamide] | < 10 | 30 to 200 | < 10 |  |
| CNC(=O)c1cc(C)c(F)c(-c2cnn3cc(-c4cnn(CCC#N)c4)c(N[C@H]4CCOC4)nc23)c1 [Example 37, (S)-3-(6-(1-(2-Cyanoethyl)-1H-pyrazol-4-y1)-5-((tetrahydrofuran-3-yl)amino)pyrazolo[1,5-a]pyrimidin-3-y1)-4-fluoro-N,5-dimethylbenzamide] |  | 10 to 30 | < 10 | < 10 |
| CNC(=O)c1cc(C)c(F)c(-c2cnn3cc(-c4cnn(C5CCS(=O)(=O)C5)c4)c(N[C@H]4CCOC4)nc23)c1 (stereo partly drawn) [Example 38, 3-(6-(1-(1,1-Dioxidotetrahydrothiophen-3-y1)-1H-pyrazol-4-y1)-5-(((S)-tetrahydrofuran-3-yl)amino)pyrazolo[1,5-a]pyrimidin-3-y1)-4-fluoro-N,5-dimethylbenzamide] |  | 30 to 200 | < 10 | < 10 |
| CNC(=O)c1cc(C)c(F)c(-c2cnn3cc(-c4cnn(CC(=O)N(C)C)c4)c(N[C@H]4CCOC4)nc23)c1 [Example 39, (S)-3-(6-(1-(2-(Dimethylamino)-2-oxoethyl)-1H-pyrazol-4-y1)-5-((tetrahydrofuran-3-yl)amino)pyrazolo[1,5-a]pyrimidin-3-y1)-4-fluoro-N,5-dimethylbenzamide] |  | 10 to 30 | < 10 | < 10 |
| CNC(=O)c1cc(-c2cnn3cc(-c4cnn(C)c4)c(N[C@H]4CCOC4)nc23)c(F)c(C(F)F)c1 [Example 47, (S)-3-(Difluoromethyl)-4-fluoro-N-methyl-5-(6-(1-methyl-1H-pyrazol-4-yl)-5-((tetrahydrofuran-3-yl)amino)pyrazolo[1,5-a]pyrimidin-3-yl)benzamide] | < 10 | 10 to 30 | < 10 |  |
| CCn1cc(-c2cn3ncc(-c4cc(C(=O)NC)cc(C(F)F)c4F)c3nc2N[C@H]2CCOC2)cn1 [Example 48, (S)-3-(Difluoromethyl)-5-(6-(1-ethyl-1H-pyrazol-4-yl)-5-((tetrahydrofuran-3-yl)amino)pyrazolo[1,5-a]pyrimidin-3-yl)-4-fluoro-N-methylbenzamide] | < 10 | 10 to 30 | < 10 |  |
| CNC(=O)c1cc(-c2cnn3cc(-c4cnn(C5CCOC5)c4)c(N[C@H]4CCOC4)nc23)c(F)c(C(F)F)c1 (stereo partly drawn) [Example 49, 3-(Difluoromethyl)-4-fluoro-N-methyl-5-(6-(1-(tetrahydrofuran-3-yl)-1H-pyrazol-4-yl)-5-(((S)-tetrahydrofuran-3-yl)amino)pyrazolo[1,5-a]pyrimidin-3-y1)benzamide] |  | 10 to 30 | < 10 | < 10 |
| CNC(=O)c1cc(-c2cnn3cc(-c4cnn(CCOC)c4)c(N[C@H]4CCOC4)nc23)c(F)c(C(F)F)c1 [Example 50, (S)-3-(Difluoromethyl)-4-fluoro-5-(6-(1-(2-methoxyethyl)-1H-pyrazol-4-yl)-5-((tetrahydrofuran-3-yl)amino)pyrazolo[1,5-a]pyrimidin-3-yl)-N-methylbenzamide] | < 10 | 10 to 30 | < 10 |  |
| CNC(=O)c1cc(F)c(F)c(-c2cnn3cc(-c4cnn(Cc5cccnc5)c4)c(N[C@H]4CCOC4)nc23)c1 [Example 52, (S)-3,4-Difluoro-N-methyl-5-(6-(1-(pyridin-3-ylmethyl)-1H-pyrazol-4-yl)-5-((tetrahydrofuran-3-yl)amino)pyrazolo[1,5-a]pyrimidin-3-yl)benzamide] | < 10 | < 10 | < 10 |  |
| CNC(=O)c1cc(F)c(F)c(-c2cnn3cc(-c4cnn(CC5CCOCC5)c4)c(N[C@H]4CCOC4)nc23)c1 [Example 54, (S)-3,4-Difluoro-N-methyl-5-(6-(1-((tetrahydro-2H-pyran-4-yl)methyl)-1H-pyrazol-4-y1)-5-((tetrahydrofuran-3-yl)amino)pyrazolo[1,5-a]pyrimidin-3-yl)benzamide] |  | < 10 | < 10 | < 10 |
| CNC(=O)c1cc(F)c(F)c(-c2cnn3cc(-c4ccn(C(C)C)c(=O)c4)c(N[C@H]4CCOC4)nc23)c1 [Example 56, (S)-3,4-Difluoro-5-(6-(1-isopropyl-2-oxo-1,2-dihydropyridin-4-y1)-5-((tetrahydrofuran-3-yl)amino)pyrazolo[1,5-a]pyrimidin-3-y1)-N-methylbenzamide] |  | 10 to 30 | < 10 | < 10 |
| CNC(=O)c1cc(F)c(F)c(-c2cnn3cc(-c4ccc(C(C)(C)O)nc4)c(N[C@H]4CCOC4)nc23)c1 [Example 57, (S)-3,4-Difluoro-5-(6-(6-(2-hydroxypropan-2-yl)pyridin-3-y1)-5-((tetrahydrofuran-3-yl)amino)pyrazolo[1,5-a]pyrimidin-3-y1)-N-methylbenzamide] |  | 30 to 200 | < 10 | < 10 |
| [2H]C([2H])([2H])NC(=O)c1cc(C)c(F)c(-c2cnn3cc(-c4cnn(C5CCN(C(C)C)CC5)n4)c(N[C@H]4CCOC4)nc23)c1 [Example 67, (S)-4-Fluoro-3-(6-(2-(1-isopropylpiperidin-4-yl)-2H-1,2,3-triazol-4-yl)-5-((tetrahydrofuran-3-yl)amino)pyrazolo[1,5-a]pyrimidin-3-yl)-5-methyl-N-(methyl-d3)benzamide] | < 10 | < 10 | < 10 |  |
